Data reported in patent publication EP0629633A2, “Dinucleotide analogues, intermediates therefor and oligonucleotides derived therefrom” (CIBA-GEIGY AG, priority 1993, dated 1994).

How the values were obtained:
[1] = tested on: herpes simplex virus type 1(HSV-1) (strain 17i); assay: Antiviral plaque reduction assay, HSV-1; type: cell-based; settings: Human alphaherpesvirus 1; HSV-1, Vero cells, plaque numbers after 2 or 3 days
Description: (§1) Compound 34 is tested for antiviral activity against herpes simplex virus type 1(HSV-1) (strain 17i) and herpes simplex virus type 2(HSV-2) (strain HG52) in vitro. Aqueous solutions of the compounds are prepared at concentrations between 10mM and […]. The solutions are stored at -70°C after preparation and thawed prior to use in the antiviral assays. After thawing, the solutions are diluted to the appropriate concentration in the cell-culture medium without prior filtration.
(§2) In a procedure similar to that described by Tyms etal, J. Antimicrob. Chemother, 8,65-72 (1981), cell monolayers are infected with 20-200 plaque forming units and after virus adsorption the inoculum is replaced by maintenance medium containing different concentrations of the compound under investigation. Virus spread is prevented by the incorporation of 0.5% low gelling temperature agarose. At the end of a set period (2 or 3 days) monolayers are fixed, stained with methylene blue and plaque numbers determined.

[2] = tested on: herpes simplex virus type 2(HSV-2) (strain HG52); assay: Antiviral plaque reduction assay, HSV-2; type: cell-based; settings: Human alphaherpesvirus 2; HSV-2, Vero cells, plaque numbers after 2 or 3 days
Description: as §1, §2

Cc1cn(C2CC(O)C(CCP(=O)(c3ccccc3)C(O)C3CC(n4cc(C)c(=O)[nH]c4=O)OC3CO[Si](c3ccccc3)(c3ccccc3)C(C)(C)C)O2)c(=O)[nH]c1=O (centres unmarked) [Compound 34]
IC50 [1]: 2.6 µM | IC50 [2]: 3.8 µM
